Laboratory results from PubChem BioAssay (NCI).
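48-hour exposure; five concentrations; linearly interpolated endpoints. Here, GI50 denotes the concentration required for 50% inhibition of growth. TGI: total growth inhibition.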

What was measured:
Test in all cases: NCI tumour cell line growth inhibition, 48 h
HS 578T breast = tested on: HS 578T breast
SK-OV-3 ovarian = tested on: SK-OV-3 ovarian
786-0 renal = tested on: 786-0 renal
HCT-116 colon = tested on: HCT-116 colon
M14 melanoma = tested on: M14 melanoma
NCI-H226 lung = tested on: NCI-H226 lung
K-562 leukemia = tested on: K-562 leukemia
SNB-19 CNS = tested on: SNB-19 CNS
RPMI-8226 leukemia = tested on: RPMI-8226 leukemia
PC-3 prostate = tested on: PC-3 prostate
LOX IMVI melanoma = tested on: LOX IMVI melanoma
BT-549 breast = tested on: BT-549 breast
SW-620 colon = tested on: SW-620 colon
NCI/ADR-RES ovarian = tested on: NCI/ADR-RES ovarian
HCT-15 colon = tested on: HCT-15 colon
HT29 colon = tested on: HT29 colon
RXF 393 renal = tested on: RXF 393 renal
UACC-62 melanoma = tested on: UACC-62 melanoma
MOLT-4 leukemia = tested on: MOLT-4 leukemia
SK-MEL-2 melanoma = tested on: SK-MEL-2 melanoma
HOP-62 NSCLC = tested on: HOP-62 NSCLC
HOP-92 NSCLC = tested on: HOP-92 NSCLC
MDA-MB-435 = tested on: MDA-MB-435
T-47D breast = tested on: T-47D breast
OVCAR-5 ovarian = tested on: OVCAR-5 ovarian
OVCAR-4 ovarian = tested on: OVCAR-4 ovarian
A549 NSCLC = tested on: A549 NSCLC
TK-10 renal = tested on: TK-10 renal
CCRF-CEM leukemia = tested on: CCRF-CEM leukemia
HCC-2998 colon = tested on: HCC-2998 colon
DU-145 prostate = tested on: DU-145 prostate
SN12C renal = tested on: SN12C renal
KM12 colon = tested on: KM12 colon
MALME-3M melanoma = tested on: MALME-3M melanoma
SF-295 CNS = tested on: SF-295 CNS
ACHN renal = tested on: ACHN renal
SK-MEL-28 melanoma = tested on: SK-MEL-28 melanoma
SNB-75 CNS = tested on: SNB-75 CNS
EKVX NSCLC = tested on: EKVX NSCLC
NCI-H460 lung = tested on: NCI-H460 lung
U251 CNS = tested on: U251 CNS
MDA-MB-231 breast = tested on: MDA-MB-231 breast
UO-31 renal = tested on: UO-31 renal
A498 renal = tested on: A498 renal
NCI-H23 lung = tested on: NCI-H23 lung
OVCAR-8 ovarian = tested on: OVCAR-8 ovarian
SF-268 CNS = tested on: SF-268 CNS
UACC-257 melanoma = tested on: UACC-257 melanoma
CAKI-1 renal = tested on: CAKI-1 renal
IGROV1 ovarian = tested on: IGROV1 ovarian
SR leukemia = tested on: SR leukemia
MCF7 breast = tested on: MCF7 breast
SF-539 CNS = tested on: SF-539 CNS
OVCAR-3 ovarian = tested on: OVCAR-3 ovarian
COLO 205 colon = tested on: COLO 205 colon
SK-MEL-5 melanoma = tested on: SK-MEL-5 melanoma
NCI-H522 lung = tested on: NCI-H522 lung
HL-60(TB) leukemia = tested on: HL-60(TB) leukemia

Compound `Cc1nn(CCO)c(C)c1N=[N+]([O-])c1c(C)nn(CCO)c1C` has a GI50 (HS 578T breast) of 17.6 µM, a TGI (HS 578T breast) of 53.1 µM and a GI50 (SK-OV-3 ovarian) of 16.3 µM. The TGI (SK-OV-3 ovarian) was 30.5 µM, the GI50 (786-0 renal) was 10.1 µM and the TGI (786-0 renal) was 41.5 µM. For the same compound, the GI50 (HCT-116 colon) was 2.12 µM, the GI50 (M14 melanoma) was 1.88 µM and the TGI (M14 melanoma) was greater than 19.7 µM. The GI50 (NCI-H226 lung) was 16.1 µM, the TGI (NCI-H226 lung) was 37 µM and the GI50 (K-562 leukemia) was 2.19 µM. The TGI (K-562 leukemia) was 7.13 µM, the GI50 (SNB-19 CNS) was 16.6 µM and the TGI (SNB-19 CNS) was 32.1 µM. For the same compound, the GI50 (RPMI-8226 leukemia) was 3.64 µM, the TGI (RPMI-8226 leukemia) was 14.8 µM and the GI50 (PC-3 prostate) was 4.99 µM. It also gave a TGI (PC-3 prostate) of 20.9 µM, a GI50 (LOX IMVI melanoma) of 3 µM and a TGI (LOX IMVI melanoma) of 7.69 µM. For the same compound, the GI50 (BT-549 breast) was 2.13 µM, the TGI (BT-549 breast) was 6.48 µM and the GI50 (SW-620 colon) was 1.45 µM. For the same compound, the TGI (SW-620 colon) was 3.09 µM, the GI50 (NCI/ADR-RES ovarian) was 11.8 µM and the TGI (NCI/ADR-RES ovarian) was 39 µM. The GI50 (HCT-15 colon) was 2.4 µM, the TGI (HCT-15 colon) was 6.5 µM and the GI50 (HT29 colon) was 3.59 µM. It also gave a TGI (HT29 colon) of 13.7 µM, a GI50 (RXF 393 renal) of 1.74 µM and a TGI (RXF 393 renal) of 3.73 µM. For the same compound, the GI50 (UACC-62 melanoma) was 8.48 µM, the TGI (UACC-62 melanoma) was 22.2 µM and the GI50 (MOLT-4 leukemia) was 8.47 µM. For the same compound, the TGI (MOLT-4 leukemia) was 33.3 µM, the GI50 (SK-MEL-2 melanoma) was 5.79 µM and the TGI (SK-MEL-2 melanoma) was 40.9 µM. The GI50 (HOP-62 NSCLC) was 20.4 µM, the TGI (HOP-62 NSCLC) was greater than 57.9 µM and the GI50 (HOP-92 NSCLC) was 1.83 µM. The TGI (HOP-92 NSCLC) was 7.19 µM, the GI50 (MDA-MB-435) was 1.59 µM and the TGI (MDA-MB-435) was 3.53 µM. The GI50 (T-47D breast) was 1.7 µM, the TGI (T-47D breast) was 4.51 µM and the GI50 (OVCAR-5 ovarian) was 11.3 µM. It also gave a TGI (OVCAR-5 ovarian) of 24.2 µM, a GI50 (OVCAR-4 ovarian) of 5.88 µM and a TGI (OVCAR-4 ovarian) of 15.8 µM. For the same compound, the GI50 (A549 NSCLC) was 14.8 µM, the TGI (A549 NSCLC) was 36.2 µM and the GI50 (TK-10 renal) was 1.64 µM. It also gave a TGI (TK-10 renal) of 3.43 µM, a GI50 (CCRF-CEM leukemia) of 3.53 µM and a TGI (CCRF-CEM leukemia) of 33.5 µM. For the same compound, the GI50 (HCC-2998 colon) was 13.7 µM, the TGI (HCC-2998 colon) was 27.2 µM and the GI50 (DU-145 prostate) was 2.92 µM. It also gave a TGI (DU-145 prostate) of 7.88 µM, a GI50 (SN12C renal) of 6.3 µM and a TGI (SN12C renal) of 23 µM. The GI50 (KM12 colon) was 12.6 µM, the TGI (KM12 colon) was 26 µM and the GI50 (MALME-3M melanoma) was 0.723 µM. The TGI (MALME-3M melanoma) was 2.4 µM, the GI50 (SF-295 CNS) was 15.3 µM and the TGI (SF-295 CNS) was 30 µM. The GI50 (ACHN renal) was 1.36 µM, the TGI (ACHN renal) was 2.91 µM and the GI50 (SK-MEL-28 melanoma) was 2.84 µM. The TGI (SK-MEL-28 melanoma) was 7.19 µM, the GI50 (SNB-75 CNS) was 13.1 µM and the TGI (SNB-75 CNS) was 25.9 µM. For the same compound, the GI50 (EKVX NSCLC) was 5.62 µM, the TGI (EKVX NSCLC) was 20.6 µM and the GI50 (NCI-H460 lung) was 17.8 µM. It also gave a TGI (NCI-H460 lung) of 37.8 µM, a GI50 (U251 CNS) of 7.42 µM and a TGI (U251 CNS) of 20.6 µM. It also gave a GI50 (MDA-MB-231 breast) of 13.5 µM, a TGI (MDA-MB-231 breast) of 28.8 µM and a GI50 (UO-31 renal) of 0.754 µM. For the same compound, the TGI (UO-31 renal) was 2.15 µM, the GI50 (A498 renal) was 15.9 µM and the TGI (A498 renal) was 29.8 µM. For the same compound, the GI50 (NCI-H23 lung) was 4.95 µM, the TGI (NCI-H23 lung) was 10.6 µM and the GI50 (OVCAR-8 ovarian) was 2.19 µM. For the same compound, the TGI (OVCAR-8 ovarian) was 4.54 µM, the GI50 (SF-268 CNS) was 15.6 µM and the TGI (SF-268 CNS) was 31.2 µM. For the same compound, the GI50 (UACC-257 melanoma) was 1.69 µM, the TGI (UACC-257 melanoma) was 3.5 µM and the GI50 (CAKI-1 renal) was 1.51 µM. It also gave a TGI (CAKI-1 renal) of 3.33 µM, a GI50 (IGROV1 ovarian) of 4.8 µM and a TGI (IGROV1 ovarian) of 21.8 µM. It also gave a GI50 (SR leukemia) of 1.8 µM, a TGI (SR leukemia) of 6.86 µM and a GI50 (MCF7 breast) of 2.64 µM. The TGI (MCF7 breast) was 8.36 µM, the GI50 (SF-539 CNS) was 2.13 µM and the TGI (SF-539 CNS) was 5.51 µM. It also gave a GI50 (OVCAR-3 ovarian) of 1.92 µM, a TGI (OVCAR-3 ovarian) of 3.65 µM and a GI50 (COLO 205 colon) of 0.296 µM. For the same compound, the TGI (COLO 205 colon) was 0.802 µM, the GI50 (SK-MEL-5 melanoma) was 11 µM and the TGI (SK-MEL-5 melanoma) was 23.3 µM. For the same compound, the GI50 (NCI-H522 lung) was 1.03 µM, the TGI (NCI-H522 lung) was 2.88 µM and the GI50 (HL-60(TB) leukemia) was 2.5 µM. For the same compound, the TGI (HL-60(TB) leukemia) was 9.3 µM.
